The values that follow come from paper PMC3431023 (Journal of medicinal chemistry, 2012).

One may read the IC50 as the concentration needed to halve the response being measured.

In one assay the target is α3β4-nAChR (Rattus norvegicus, UniProt P04757+P12392). Format: cell-based. Conditions: 100 µM compound, rat α3β4 in Xenopus oocytes.
The subject of the next assay is human α4β2-nAChRs. Conditions: competitive antagonist of human α4β2-nAChRs; cited from earlier work.
The subject of assay [1] is discriminative stimulus effects of nicotine. Conditions: rodents; cited from earlier work.
Assay [2] relates to nAChR. Format: in vivo. Particulars: mouse, s.c., tested 5 min after injection; (confidence limits).
Assay [3] relates to nicotine's ability to facilitate ICSS. Particulars: rodents; cited from earlier work.
The subject of another assay is CPP produced by nicotine. Conditions: rodents; cited from earlier work.
Assay [4] relates to nAChR. Format: in vivo. Particulars: mouse, s.c., tested 5 min after injection.
For assay [5], the system named is nicotine self-administration. Conditions: rodents; cited from earlier work.
Assay [6] deals with nAChR. Format: in vivo. Conditions: mouse, s.c., 30 min.
For assay [7], the system named is nAChR. Format: in vivo. Conditions: mouse, s.c.
Assay [8] addresses T1, α4β2-nAChR (Rattus norvegicus, UniProt P09483+P12390). Format: cell-based.
Target sequence in this assay (P09483 31-630): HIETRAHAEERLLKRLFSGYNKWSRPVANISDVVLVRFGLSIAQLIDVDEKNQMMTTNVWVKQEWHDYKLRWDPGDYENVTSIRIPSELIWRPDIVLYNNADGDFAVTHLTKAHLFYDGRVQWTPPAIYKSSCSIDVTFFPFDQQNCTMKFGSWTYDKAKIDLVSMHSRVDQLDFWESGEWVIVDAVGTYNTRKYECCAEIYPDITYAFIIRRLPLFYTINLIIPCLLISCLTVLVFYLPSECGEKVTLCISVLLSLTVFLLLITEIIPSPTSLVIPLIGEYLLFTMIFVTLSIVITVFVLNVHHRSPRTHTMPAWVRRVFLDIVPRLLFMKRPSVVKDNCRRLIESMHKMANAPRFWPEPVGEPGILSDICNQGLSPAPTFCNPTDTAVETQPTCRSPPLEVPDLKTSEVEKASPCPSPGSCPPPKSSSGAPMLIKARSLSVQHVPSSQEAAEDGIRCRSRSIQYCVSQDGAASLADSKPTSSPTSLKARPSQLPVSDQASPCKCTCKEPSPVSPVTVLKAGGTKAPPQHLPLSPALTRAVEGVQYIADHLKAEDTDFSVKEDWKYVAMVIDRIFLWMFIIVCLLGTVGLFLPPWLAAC
Target sequence in this assay (P12390 25-500): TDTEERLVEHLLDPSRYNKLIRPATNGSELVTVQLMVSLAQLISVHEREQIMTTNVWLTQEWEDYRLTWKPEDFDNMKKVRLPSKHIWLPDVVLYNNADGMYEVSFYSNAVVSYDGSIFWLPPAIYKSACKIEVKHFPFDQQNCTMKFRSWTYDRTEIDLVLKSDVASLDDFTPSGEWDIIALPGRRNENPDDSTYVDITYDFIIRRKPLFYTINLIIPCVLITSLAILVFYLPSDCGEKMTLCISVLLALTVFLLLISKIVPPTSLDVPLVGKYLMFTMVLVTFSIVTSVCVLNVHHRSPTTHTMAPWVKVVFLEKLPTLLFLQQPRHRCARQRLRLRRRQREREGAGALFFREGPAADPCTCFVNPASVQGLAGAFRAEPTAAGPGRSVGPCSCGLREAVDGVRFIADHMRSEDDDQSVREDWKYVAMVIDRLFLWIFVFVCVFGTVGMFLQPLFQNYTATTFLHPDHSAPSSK
The test system of assay [9] is nAChR. Kind of assay: Antagonism of nicotine-induced antinociception, hot-plate test. The class given is in vivo. Particulars: mouse. (In general: Hot-plate and tail-flick tests time the reaction to a heat stimulus.)
In assay [10] the target is T1, α4β2-nAChR. The class given is binding. Conditions: Ki ratio.
Target sequence in this assay (P12390 25-500): as above
Target sequence in this assay (P09483 31-630): as the sequence (P09483 31-630) above
Another assay deals with α4β2. Particulars: read-out: Antagonist Activity IC50 α4β2; cited from earlier work.

α3β4-nAChR, sequence (P04757 26-499): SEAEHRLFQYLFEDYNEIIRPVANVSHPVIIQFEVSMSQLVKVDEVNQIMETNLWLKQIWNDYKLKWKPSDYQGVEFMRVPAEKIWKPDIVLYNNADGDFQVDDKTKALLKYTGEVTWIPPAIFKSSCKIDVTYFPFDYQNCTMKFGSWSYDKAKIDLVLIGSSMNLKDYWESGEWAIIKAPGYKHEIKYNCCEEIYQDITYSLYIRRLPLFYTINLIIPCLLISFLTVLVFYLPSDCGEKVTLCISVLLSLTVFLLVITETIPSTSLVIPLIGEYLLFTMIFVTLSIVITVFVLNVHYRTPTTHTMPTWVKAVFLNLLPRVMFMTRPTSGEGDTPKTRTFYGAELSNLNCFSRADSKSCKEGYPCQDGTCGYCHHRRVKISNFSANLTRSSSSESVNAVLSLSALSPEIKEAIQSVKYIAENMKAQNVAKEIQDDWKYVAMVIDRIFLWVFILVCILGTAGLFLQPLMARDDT
α3β4-nAChR, sequence (P12392 21-495): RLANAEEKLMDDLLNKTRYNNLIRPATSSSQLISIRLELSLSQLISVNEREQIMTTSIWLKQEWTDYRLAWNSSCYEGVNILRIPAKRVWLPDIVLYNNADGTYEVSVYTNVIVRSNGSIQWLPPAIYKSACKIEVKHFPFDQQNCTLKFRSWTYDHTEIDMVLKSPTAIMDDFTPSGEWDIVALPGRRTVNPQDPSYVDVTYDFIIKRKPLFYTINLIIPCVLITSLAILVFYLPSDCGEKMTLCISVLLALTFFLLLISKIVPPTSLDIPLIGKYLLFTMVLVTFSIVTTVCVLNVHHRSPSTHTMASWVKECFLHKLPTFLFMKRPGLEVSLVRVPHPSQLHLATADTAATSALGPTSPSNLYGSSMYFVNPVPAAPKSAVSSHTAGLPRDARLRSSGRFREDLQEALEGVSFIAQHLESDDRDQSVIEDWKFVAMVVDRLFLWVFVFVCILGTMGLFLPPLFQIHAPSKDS

As to `O=[N+]([O-])c1ccc(-c2cc(C3CC4CCC3N4)cnc2F)cc1` (stereo not drawn) [Compound 5a, 2'-fluoro-3'-(4-nitrophenyl)deschloroepibatidine], at α3β4-nAChR, the “Agonist Activity (% of max ACh at 100 µM of Compd) α3β4” value was “low level of agonist activity”. In addition, in the assay on human α4β2-nAChRs, the “potency higher than that of dihydro-β-erythroidine (6)” value is on record as 17 fold. In addition, the “effect on discriminative stimulus effects of nicotine” value in assay [1] is “attenuated”. Further, the “ED50 Tail-Flick” value in the assay with nAChR [2] is “no functional activity”. Besides, in assay [3], the “effect on nicotine's ability to facilitate ICSS” value was “reduced”. In addition, the “effect on CPP produced by nicotine” value in the assay with CPP produced by nicotine is on record as “blocked”. The “ED50 Hot-Plate” value in the assay on nAChR [4] was “no functional activity”. Moreover, the “effect on i.v. nicotine self-administration” value in assay [5] is “dose-dependently blocked”.

Regarding `Fc1ncc(C2CC3CCC2N3)cc1-c1ccc(C(F)(F)F)cc1` (stereo not drawn) [Compound 5b, 2'-Fluoro-3'-(4'-trifluoromethylphenyl)deschloroepibatidine], at α3β4-nAChR, the “Agonist Activity (% of max ACh at 100 µM of Compd) α3β4” value is recorded as “lacked agonist activity”. In addition, in the assay on nAChR [6], the “ED50 Hypothermia” value is given as “no activity”. Also, in the assay on nAChR [7], the “ED50 Spontaneous Activity” value is given as “no activity”. Besides, on α4β2-nAChR [8] (electrophysiology, IC50 ratio), the “selectivity for α4β2- over α3β4-nAChR (antagonist potency)” value was “no selectivity” and the “selectivity for α4β2- over α7-nAChR (antagonist potency)” value was “no selectivity”. Further, the “AD50 Hot-Plate” value with nAChR [9] is “antagonists in the hot-plate test”.

As to `N#Cc1ccc(-c2cc(C3CC4CCC3N4)cnc2F)cc1` (stereo not drawn) [Compound 5c, 2'-Fluoro-3'-(4-cyanophenyl)deschloroepibatidine], the “Agonist Activity (% of max ACh at 100 µM of Compd) α3β4” value on α3β4-nAChR is recorded as “low level of agonist activity”. The “ED50 Hypothermia” value with nAChR [6] is reported as “no activity”. The “ED50 Spontaneous Activity” value with nAChR [7] is “no activity”.

On to `CS(=O)(=O)c1ccc(-c2cc(C3CC4CCC3N4)cnc2F)cc1` (stereo not drawn) [Compound 5d, 2'-Fluoro-3'-(4-methanesulfonylphenyl)deschloroepibatidine], for which the “ED50 Hypothermia” value in the assay on nAChR [6] is “no activity”. The “ED50 Spontaneous Activity” value in the assay with nAChR [7] is listed as “no activity”. For the same molecule, the “AD50 Hot-Plate” value with nAChR [9] is listed as “antagonists in the hot-plate test”.

Consider `NS(=O)(=O)c1ccc(-c2cc(C3CC4CCC3N4)cnc2F)cc1` (stereo not drawn) [Compound 5e, 2'-Fluoro-3'-(4-aminosulfonylphenyl)deschloroepibatidine], for which the “ED50 Hypothermia” value in the assay on nAChR [6] is “no activity”. Moreover, the “ED50 Spontaneous Activity” value in the assay with nAChR [7] is listed as “no activity”.

On to `O=S(=O)(c1ccc(-c2cc(C3CC4CCC3N4)cnc2F)cc1)C(F)(F)F` (stereo not drawn) [Compound 5f, 2'-Fluoro-3'-(4-trifluoromethanesulfonylphenyl)deschloroepibatidine], for which, at α3β4-nAChR, the “Agonist Activity (% of max ACh at 100 µM of Compd) α3β4” value is reported as “low level of agonist activity”. For the same molecule, the “ED50 Spontaneous Activity” value in the assay on nAChR [7] is reported as “only active in the spontaneous activity test”.

Turning to `NC(=O)c1ccc(-c2cc(C3CC4CCC3N4)cnc2F)cc1` (stereo not drawn) [Compound 5g, 2'-Fluoro-3'-(4-carbamoylphenyl)deschloroepibatidine], the “Agonist Activity (% of max ACh at 100 µM of Compd) α3β4” value at α3β4-nAChR is “low level of agonist activity”. Moreover, in the assay with nAChR [6], the “ED50 Hypothermia” value is “only active in the hypothermia and spontaneous activity tests”. Further, the “selectivity for α4β2 over α7 in radioligand binding assays” value at α4β2-nAChR [10] was > 15,000 fold. Further, the “ED50 Spontaneous Activity” value in the assay with nAChR [7] was “only active in the hypothermia and spontaneous activity tests”. Also, the “Agonist Activity (% of max ACh at 100 µM of Compd) α4β2” value on α4β2-nAChR [8] (100 µM compound, rat α4β2 in Xenopus oocytes) is reported as “low level of agonist activity”.

With `c1cnc2cc3c(cc2n1)[C@@H]1CNC[C@H]3C1` [varenicline], the IC50 in the assay with α4β2 was 200 ± 30 nM.
